Data published in patent publication EP1348696B1, “Use of optically active clausenamides for the preparation of pharmaceutical compositions, pharmaceutical compositions containing the same” (INSTITUTE OF MATERIA MEDICA, CHINESE ACADEMY OF MEDICAL …, priority 2002, dated 2003).

Test system: β-AP (25-35)-treated rats
Assay: Morris water maze, memory impairment induced by aggregated Aβ 25-35
Type: in vivo
Details: A β 25-35 alone
Source text: Pathological features of Alzheimer's disease (AD) include extensive neuronal loss and the presence of numerous neurofibrillary tangles and senile plaques in the brain. The senile plaques contain amyloid fibrils derived from a 39-43 amino acids peptide referred to as β-amyloid or Aβ which can produce neurotoxicity. Aβ 25-35 poccesses the similar neurotoxicity and ability of self-aggregation as Aβ 1-42. Administrated aggregated Aβ 25-35 into rat's lateral cerebral ventricle induced memory impairment in Morris water maze. […] The latency for finding the platform beginning from 3th to 5th day in (-)clausenamide 8mg • kg^-1 and 40mg • kg^-1 groups was shorter than that of A β group. […] With increasing of training days, the initial heading angle became small. On the 3th day, the initial heading angle of A β group was larger than control. […] (see Tab.3)
There are four strategies for finding platform in Morris water maze: random, circle, taxis and line. In the beginning of training the search strategies for finding target is mainly circle and random, with the increasing of training, the percentage of the two strategies declined gradually, Beginning from the 3th day, declining speed in control and (-) clausenamide group was faster than A β ,(+) clausenamide and piracetam groups. Meanwhile, the appearance of taxis and line strategies in (-) clausenamide group increased markedly. Table 3a Effects of (-),(+) Clausenamide on the number of error of β-AP (25-35)-treated rats inone trial passive avoidance. Value is represented as MEAN±S.E.M.

For “A β 25-35: β-amyloid fragment with neurotoxicity and self-aggregation similar to Aβ 1-42; icv induces memory impairment (GSNKGAIIGLM; Amyloid-beta protein 42; UniProt P05067 696-706, looked up, fragment)”, the “initial heading angle, Training days 1” value was 106.3±29.8, the “initial heading angle, Training days 2” value was 98.7±30.4 and the “initial heading angle, Training days 3” value was 73.6±20.3. The “initial heading angle, Training days 4” value was 60.6±23.8 and the “initial heading angle, Training days 5” value was 46.7±19.4.
